The source of these data is US12458646B2, “Therapeutic or preventing agent for multiple sclerosis including indole compound” (JAPAN TOBACCO INC., priority 2018, dated 2025).

SMILES strings stand for the structures.

Experiment [1] concerns the target T1, inducible T cell kinase (ITK) (Homo sapiens, UniProt Q08881).
T1 sequence (Q08881 1-620): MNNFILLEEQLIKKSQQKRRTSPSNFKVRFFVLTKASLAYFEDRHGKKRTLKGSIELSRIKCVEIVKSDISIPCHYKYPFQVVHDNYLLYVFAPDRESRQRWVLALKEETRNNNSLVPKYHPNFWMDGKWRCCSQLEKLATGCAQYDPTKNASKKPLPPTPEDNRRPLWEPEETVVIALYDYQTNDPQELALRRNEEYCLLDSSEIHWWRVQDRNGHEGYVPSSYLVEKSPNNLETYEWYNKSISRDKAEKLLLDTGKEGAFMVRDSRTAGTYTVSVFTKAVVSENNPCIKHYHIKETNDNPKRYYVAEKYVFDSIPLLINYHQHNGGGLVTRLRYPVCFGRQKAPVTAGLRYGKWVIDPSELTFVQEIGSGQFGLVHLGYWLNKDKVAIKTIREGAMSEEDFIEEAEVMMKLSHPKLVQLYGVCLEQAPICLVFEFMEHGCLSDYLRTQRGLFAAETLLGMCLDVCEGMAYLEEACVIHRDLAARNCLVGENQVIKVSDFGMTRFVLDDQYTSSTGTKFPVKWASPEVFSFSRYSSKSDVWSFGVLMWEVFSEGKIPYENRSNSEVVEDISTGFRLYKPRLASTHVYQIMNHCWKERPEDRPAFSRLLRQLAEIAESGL
Conditions: as described in patent document 1 (WO 2011/065402); cited from earlier work.

In experiment [2] the test system is mouse experimental autoimmune encephalomyelitis (EAE) model. Nature of the experiment: disease animal model of MS (mouse experimental autoimmune encephalomyelitis (EAE) model, clinical score). The following applies: experiment using a disease animal model of MS. Format: in vivo. The protocol: Using a mouse EAE model, the suppressive effect of Compound A on an increase in clinical score was evaluated. The evaluation was performed by reference to non-patent document 3. As the experiment animal, 8-week-old female C57BL/6J mouse (CHARLES RIVER LABORATORIES JAPAN, INC.) was used. Monohydrochloride of Compound A was dissolved in 0.5% (w/v) methylcellulose (MC) to prepare 1 mg/mL, 3 mg/mL and 6 mg/mL Compound A solutions. FTY-720 hydrochloride (Cayman Chemical) was dissolved in 0.5% (w/v) MC to prepare a 0.01 mg/mL FTY-720 solution. […]
As clinical scores (score 0; normal, score 1; limp tail, score 2; hind limb weakness, score 3; partial hind limb paralysis, score 4; complete hind limb paralysis, score 5; moribund state, dead), the condition was observed over time and scored for each individual for 18 days from day 1.
Using a mouse Adoptive transfer EAE model, the suppressive effect of Compound A on an increase in clinical score was evaluated. […]
As clinical scores (score 0; normal, score 1; limp tail, score 2; hind limb weakness, score 3; partial hind limb paralysis, score 4; complete hind limb paralysis, score 5; moribund state, dead), the condition was observed over time and scored for each individual for 20 days from day 1.

In the case of `C[C@@H](C(=O)N(C)c1ccc2cc(-c3n[nH]c4c3CCC(C)(C)C4)[nH]c2c1)N1CCOCC1` [Compound A, N-[2-(6,6-dimethyl-4,5,6,7-tetrahydro-1H-indazol-3-yl)-1H-indol-6-yl]-N-methyl-(2S)-2-(morpholin-4-yl)propanamide], the ITK inhibitory activity entry in experiment [1] is listed as “has an ITK inhibitory activity”. The “severity of the disease” value in experiment [2] was “significantly reduce severity of the disease”.
